Source: ChEMBL document CHEMBL3745656, “Discovery of Inhibitors That Overcome the G1202R Anaplastic Lymphoma Kinase Resistance Mutation” (J Med Chem, 2015)

Experiments:
[1] = in vivo; details: mouse, brain, iv, 2 mg/kg
Description: Drug level in mouse brain at 2 mg/kg, iv after 8 hrs

[2] = in vivo; details: mouse, brain, po, 10 mg/kg
Description: Drug level in mouse brain at 10 mg/kg, po after 8 hrs

[3] = Plasma concentration in mouse at 2 mg/kg, iv after 2 hrs; assay type: ADME, organism-based
[4] = Plasma concentration in mouse at 10 mg/kg, po after 2 hrs; assay type: ADME, organism-based
[5] = Plasma concentration in mouse at 2 mg/kg, iv after 8 hrs; assay type: ADME, organism-based
[6] = Plasma concentration in mouse at 10 mg/kg, po after 8 hrs; assay type: ADME, organism-based

Q: With `CCc1cc2c(cc1-c1cnn(CC(=O)N(C)C)c1)C(C)(C)c1[nH]c3cc(C#N)ccc3c1C2=O` as the compound, how does the concentration at 8 h [1] read?
A: 4 nM

Q: What about the concentration at 8 h [2] of the same compound?
A: 4 nM

Q: For `CCc1cc2c(cc1-c1cnn(CCCN(C)C)c1)C(C)(C)c1[nH]c3cc(C#N)ccc3c1C2=O`, which concentration at 2 h [3] is on record?
A: 210 nM

Q: What about the concentration at 2 h [4] of the same compound?
A: 210 nM

Q: And the concentration at 8 h [5]?
A: 50 nM

Q: And the concentration at 8 h [6]?
A: 170 nM

Q: And the concentration at 8 h [1]?
A: 80 nM
